From patent publication US12590066B2, “Fused-heterocyclyl-carbonohydrazonoyl dicyanide compounds and use thereof” (KOREA INSTITUTE OF SCIENCE AND TECHNOLOGY, priority 2020, dated 2026)

How the values were obtained:
tau protein = target: T1, tau protein (Homo sapiens, UniProt P10636); experiment: Tau-BiFC cell model, inhibition of Forskolin-induced tau protein aggregation; format: cell-based; conditions: Forskolin 30 μM, 48 hours; for Tau BiFC in cells Response (% @10 μM): 10 μM compound, Forskolin-only group = 100% tau protein-aggregated state; for IC50: tau-BiFC cells
T1 construct: BiFC fluorescent-protein fragments (type and halves not specified); expressed in transfected cells
T1 sequence (P10636 1-441 isoform P10636-8): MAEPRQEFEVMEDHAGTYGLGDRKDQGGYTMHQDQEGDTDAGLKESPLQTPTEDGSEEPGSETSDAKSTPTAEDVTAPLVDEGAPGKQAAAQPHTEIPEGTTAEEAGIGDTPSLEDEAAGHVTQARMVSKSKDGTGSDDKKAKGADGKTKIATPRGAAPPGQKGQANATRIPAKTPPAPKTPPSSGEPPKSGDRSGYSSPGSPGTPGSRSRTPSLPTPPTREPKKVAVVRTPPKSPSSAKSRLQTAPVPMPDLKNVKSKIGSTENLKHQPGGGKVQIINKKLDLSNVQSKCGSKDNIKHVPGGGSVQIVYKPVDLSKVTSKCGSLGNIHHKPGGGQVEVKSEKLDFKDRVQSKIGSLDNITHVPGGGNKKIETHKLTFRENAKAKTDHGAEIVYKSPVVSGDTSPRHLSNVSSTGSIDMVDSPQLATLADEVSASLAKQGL
Experimental: In order to select novel tau protein aggregation-inhibiting substances, tau-BiFC cell model, in which formation of tau oligomers in living cells is easily observed, was used. Tau-BiFC cells were aliquoted into a 384-well plate. On the next day, the cells were treated with each of the compounds prepared according to Examples 1 to 57 at concentrations of 1 μM, 3 μM, and 10 μM, together with Forskolin (at a treatment concentration of 30 μM), which is a compound inducing tau protein aggregation by activating tau phosphorylase PKA. After 48 hours, nuclei in the cells were stained using Hoechst (at a treatment concentration of 2 μg/mL), and BiFC fluorescence intensity was automatically measured using Operetta (PerkinElmer) to count stained nuclei in each well out of the entire well plate. The group treated only with Forskolin, which induces tau protein aggregation, was set to a reference point of a 100% tau protein-aggregated state, and the effects of the compounds were confirmed using the equation “BiFC fluorescence intensity due to compound synthesized according to embodiment of present invention/(fluorescence intensity of control group treated only with Forskolin inducing tau protein aggregation−fluorescence intensity of untreated control group)×100”. Furthermore, the degree of cytotoxicity induced by the newly synthesized compound was also measured based on the 100% cell viability of the group treated only with Forskolin as a reference, and the cytotoxicity value of each compound was calculated using the equation “(number of stained nuclei in group treated with compound/number of stained nuclei in group treated with Forskolin)×100”. Based on the treatment results, substances inhibiting intracellular tau protein aggregation were selected from a series of candidate groups showing a tau protein aggregation inhibition rate of 70% or more and cell viability of 100% at a compound treatment concentration of 10 μM or more.
In order to evaluate dose-dependent tau protein aggregation inhibition effects of the compounds selected according to Experimental Example 1 on tau protein aggregation, tau-BiFC cells were treated with the selected compounds at concentrations of 0.03 μM, […], 0.3 μM, 1 μM, 3 μM, 10 μM, and 30 μM, respectively, together with Forskolin (at a treatment concentration of 30 μM), which is a tau protein aggregation-inducing substance. After 48 hours, tau protein aggregation reaction and degrees of cytotoxicity were analyzed by observing images of the cells. IC50 and toxicity of the compounds were analyzed by way of nonlinear regression analysis of prism software (Graph Pad).

[1] = Liver microsome stability; format: in vitro ADME; conditions: 1 μM compound, 37° C., 30 minutes, NADPH; for Dog (%) amount of substrate remaining after the reaction: dog liver microsomes 0.25 mg/mL; for Human (%) amount of substrate remaining after the reaction: human liver microsomes 0.25 mg/mL; for Mouse (%) amount of substrate remaining after the reaction: mouse liver microsomes 0.25 mg/mL; for Rat (%) amount of substrate remaining after the reaction: rat liver microsomes 0.25 mg/mL
Experimental: The stability of liver microsomes due to the compounds prepared according to Examples 1 to 57 was confirmed. Specifically, four types of liver microsomes (human, dog, rat, and mouse, each 0.25 mg/mL), a 0.1 M phosphate buffer solution (pH 7.4), and each of the compounds at a concentration of 1 μM were mixed and pre-cultured at 37° C. for 5 minutes and further cultured at 37° C. for 30 minutes together with an NADPH generation system solution added thereto. Thereafter, the reaction was terminated by adding an acetonitrile solution containing an internal standard material (chloropropamide) and centrifuged for 5 minutes (14,000 rpm, 4° C.), and then a supernatant was injected into an LC-MS/MS system for analysis of substrate drugs to thereby evaluate metabolic stability due to 8 types of compounds.
The amount of the substrate remaining after the reaction was analyzed using the Shimadzu Nexera XR system and TSQ Vantage (Thermo). In an HPLC column, Kinetex XB-C18 (2.1 mm×100 mm, particle size of 2.6 μm; Phenomenex, USA) was used, and mobile phases were (A) distilled water containing 0.1% formic acid and (B) acetonitrile containing 0.1% formic acid. Analyst software (version 1.6.3) and Xcalibur (version 1.6.1) were used for data analysis.

CYP2C19 = target: T2, CYP2C19 (Homo sapiens, UniProt P33261); experiment: Inhibitory effect on CYP coenzyme activity, human liver microsomes; format: in vitro ADME; conditions: 10 μM compound, human liver microsomes 0.25 mg/mL, substrate S-mephenytoin, 15 minutes
T2 construct: human liver microsomes (0.25 mg/mL); from tissue; host or cells: human liver microsomes
T2 sequence (P33261 whole entry): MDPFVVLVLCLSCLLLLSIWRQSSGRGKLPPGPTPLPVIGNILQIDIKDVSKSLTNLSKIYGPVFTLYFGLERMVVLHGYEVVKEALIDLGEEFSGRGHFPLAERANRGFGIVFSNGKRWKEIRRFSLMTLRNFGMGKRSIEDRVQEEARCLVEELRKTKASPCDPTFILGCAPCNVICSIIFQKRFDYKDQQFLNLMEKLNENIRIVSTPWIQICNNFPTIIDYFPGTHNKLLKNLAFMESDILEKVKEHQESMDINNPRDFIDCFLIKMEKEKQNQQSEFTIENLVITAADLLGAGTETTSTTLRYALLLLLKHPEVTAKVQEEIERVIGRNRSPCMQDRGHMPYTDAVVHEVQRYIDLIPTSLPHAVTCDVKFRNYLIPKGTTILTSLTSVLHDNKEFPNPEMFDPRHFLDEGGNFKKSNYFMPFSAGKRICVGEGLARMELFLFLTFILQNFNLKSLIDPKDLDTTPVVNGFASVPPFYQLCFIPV
Experimental: (§1) The inhibitory effects of the compounds prepared according to Examples 1 to 57 on CYP coenzyme activity were identified. Specifically, human liver microsomes (0.25 mg/mL), a 0.1 M phosphate buffer solution (pH 7.4), a substrate drug cocktail of five types of drug metabolism enzymes (50 μM phenacetin, 10 μM diclofenac, 100 μM S-mephenytoin, 5 μM dextromethorphan, and 2.5 μM midazolam), and the compound at a concentration of 0 μM or 10 μM were mixed and pre-cultured at 37° C. for 5 minutes, and then further cultured at 37° C. for 15 minutes together with an NADPH generation system solution added thereto. Thereafter, the reaction was terminated by adding an acetonitrile solution containing an internal standard material (terfenadine) and centrifuged for 5 minutes (14,000 rpm, 4° C.), and then a supernatant was injected into an LC-MS/MS system for simultaneous analysis of metabolites of the substrate drugs to thereby evaluate the inhibitory effects on drug metabolism.
(§2) Metabolites of each CYP coenzyme indicator drug generated through the reaction were analyzed using the Shimadzu Nexera XR system and TSQ Vantage (Thermo). In an HPLC column, Kinetex C18 (2.1 mm×100 mm, 2.6 μm, particle size; Phenomenex, USA) was used, and mobile phases were (A) distilled water containing 0.1% formic acid and (B) acetonitrile containing 0.1% formic acid, and a gradient program shown in Table 3 was applied thereto.
(§3) The generated metabolites were quantified using a multiple reaction monitoring (MRM) quantification mode, and Xcalibur (version 1.6.1) was used for data analysis. In order to express inhibitory effects of the novel compound prepared according to the examples of the present invention on CYP coenzyme activity, CYP coenzyme activities (%) with respect to the control group not treated with the compound are shown in Table 4 below.

CYP2C9 = target: T3, CYP2C9 (Homo sapiens, UniProt P11712); experiment: as above; format: in vitro ADME; conditions: 10 μM compound, human liver microsomes 0.25 mg/mL, substrate diclofenac, 15 minutes
T3 construct: human liver microsomes (0.25 mg/mL); from tissue; host or cells: human liver microsomes
T3 sequence (P11712 whole entry): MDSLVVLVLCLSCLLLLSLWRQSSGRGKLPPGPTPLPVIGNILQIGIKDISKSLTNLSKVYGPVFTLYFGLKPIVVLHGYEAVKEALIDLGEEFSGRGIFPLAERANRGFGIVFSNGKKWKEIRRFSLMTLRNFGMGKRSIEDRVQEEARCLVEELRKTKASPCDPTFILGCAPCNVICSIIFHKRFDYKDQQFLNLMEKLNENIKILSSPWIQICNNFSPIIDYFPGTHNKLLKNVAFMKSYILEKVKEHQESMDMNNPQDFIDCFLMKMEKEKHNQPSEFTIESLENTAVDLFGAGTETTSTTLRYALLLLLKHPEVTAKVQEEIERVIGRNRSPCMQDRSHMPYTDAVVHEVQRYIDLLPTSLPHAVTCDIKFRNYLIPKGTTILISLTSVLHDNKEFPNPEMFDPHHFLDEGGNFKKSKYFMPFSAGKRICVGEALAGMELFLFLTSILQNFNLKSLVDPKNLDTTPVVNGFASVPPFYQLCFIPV
Experimental: as §1, §2, §3

CYP3A4 = target: T4, CYP3A4 (Homo sapiens, UniProt P08684); experiment: as above; format: in vitro ADME; conditions: 10 μM compound, human liver microsomes 0.25 mg/mL, substrate midazolam, 15 minutes
T4 construct: human liver microsomes (0.25 mg/mL); from tissue; host or cells: human liver microsomes
T4 sequence (P08684 whole entry): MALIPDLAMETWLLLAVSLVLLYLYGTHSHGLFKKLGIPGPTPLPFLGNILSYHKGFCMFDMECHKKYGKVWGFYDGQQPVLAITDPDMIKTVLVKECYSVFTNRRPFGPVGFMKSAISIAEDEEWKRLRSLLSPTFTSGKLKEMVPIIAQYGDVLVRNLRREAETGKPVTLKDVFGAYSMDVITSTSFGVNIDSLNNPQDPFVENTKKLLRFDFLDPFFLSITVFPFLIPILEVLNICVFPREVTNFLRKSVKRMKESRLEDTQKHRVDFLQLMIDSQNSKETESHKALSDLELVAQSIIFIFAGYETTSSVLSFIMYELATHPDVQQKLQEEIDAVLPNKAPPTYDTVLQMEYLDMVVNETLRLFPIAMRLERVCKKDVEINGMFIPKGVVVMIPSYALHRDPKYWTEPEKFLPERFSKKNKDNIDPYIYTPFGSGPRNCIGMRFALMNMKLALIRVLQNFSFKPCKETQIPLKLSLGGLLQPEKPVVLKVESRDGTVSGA
Experimental: as §1, §2, §3

CYP2D6 = target: T5, CYP2D6 (Homo sapiens, UniProt P10635); experiment: as above; format: in vitro ADME; conditions: 10 μM compound, human liver microsomes 0.25 mg/mL, substrate dextromethorphan, 15 minutes
T5 construct: human liver microsomes (0.25 mg/mL); from tissue; host or cells: human liver microsomes
T5 sequence (P10635 whole entry): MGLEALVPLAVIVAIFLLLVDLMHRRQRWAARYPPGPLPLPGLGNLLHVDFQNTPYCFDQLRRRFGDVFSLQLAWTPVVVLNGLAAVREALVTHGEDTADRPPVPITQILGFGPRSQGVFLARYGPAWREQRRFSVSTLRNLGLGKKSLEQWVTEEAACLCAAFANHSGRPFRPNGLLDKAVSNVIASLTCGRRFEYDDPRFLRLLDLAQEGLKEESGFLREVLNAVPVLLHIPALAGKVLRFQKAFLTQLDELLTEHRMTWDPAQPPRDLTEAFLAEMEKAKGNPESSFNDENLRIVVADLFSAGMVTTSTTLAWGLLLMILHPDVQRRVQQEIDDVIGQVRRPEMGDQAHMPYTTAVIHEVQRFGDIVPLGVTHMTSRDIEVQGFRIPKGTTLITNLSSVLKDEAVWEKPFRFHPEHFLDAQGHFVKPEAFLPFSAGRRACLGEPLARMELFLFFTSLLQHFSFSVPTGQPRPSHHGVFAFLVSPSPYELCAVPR
Experimental: as §1, §2, §3

Row | Structure (SMILES) | Tau BiFC in cells Response (% @10 μM) (tau protein) | IC50 (tau protein) | Dog (%) amount of substrate remaining after the reaction [1] | Human (%) amount of substrate remaining after the reaction [1] | Mouse (%) amount of substrate remaining after the reaction [1] | Rat (%) amount of substrate remaining after the reaction [1] | CYP2C19 coenzyme activity (%) with respect to control group not treated (CYP2C19) | CYP2C9 coenzyme activity (%) with respect to control group not treated (CYP2C9) | CYP3A4 coenzyme activity (%) with respect to control group not treated (CYP3A4) | CYP2D6 coenzyme activity (%) with respect to control group not treated (CYP2D6)
1 | CC(C)n1ccc2c(NN=C(C#N)C#N)cccc2c1=O [Compound 6, (2-isopropyl-1-oxo-1,2-dihydroisoquinolin-5-yl)carbonohydrazonoyl dicyanide] | 0% | 700 nM | 95% | 94.2% | 87% | >100% | 37.8% | 8.7% | 81.4% | 85.4%
2 | Cc1cc2c(NN=C(C#N)C#N)cccc2c(=O)n1C [Compound 7, (2,3-dimethyl-1-oxo-1,2-dihydroisoquinolin-5-yl)carbonohydrazonoyl dicyanide] | 0% | 200 nM | 95.7% | 96% | 93.3% | 89.7% | 65.1% | 29.8% | 72% | 86.2%
3 | Cn1c(=O)n(C)c2cc(NN=C(C#N)C#N)c(Cl)cc21 [Compound 10, (6-chloro-1,3-dimethyl-2-oxo-2,3-dihydro-1H-benzo[d]imidazol-5-yl)carbonohydrazonoyl dicyanide] | 0% | 300 nM | 98.1% | >100% | 92.6% | 92.7% | 94.6% | >100% | >100% | >100%
4 | Cn1c(=O)n(C)c2c(Cl)cc(NN=C(C#N)C#N)cc21 [Compound 11, (7-chloro-1,3-dimethyl-2-oxo-2,3-dihydro-1H-benzo[d]imidazol-5-yl)carbonohydrazonoyl dicyanide] | 0% | 100 nM | 63.1% | 96.1% | 63.9% | 82.8% | 88.4% | 45.8% | >100% | >100%
